Laboratory results as given in patent US11339171B2, “MDM2 inhibitors” (Gan & Lee Pharmaceuticals, priority 2017, dated 2022).
Where “and” joins values, the source holds several entries; their conditions need not be identical. Equal entries are not always repeated. Where two headings read alike, the source gives them in different places.

Experiments:
MDM2 = molecular target: T1, MDM2 (Homo sapiens, UniProt Q00987); test: Inhibition test of MDM2-P53 (GST-MDM2, Biotin-P53, Anti-GST-Tb, SA-XL665); assay type: binding
T1 construct: made in house
Method in brief: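 Binding was measured by TR-FRET with GST-MDM2 at 4 nM final in PBS with 0.1% BSA, 5 mM DTT and 1 mM AEBSF. Compounds were tested as twelve-point 5-fold dilutions and incubated with the detection mix for 90 min at 25 °C with shaking before plate-reader reading and curve fitting.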

[1] = Pharmacokinetics in ICR mice after intravenous and intragastric administration; assay type: in vivo; details: for MRT last: read-out: MRT(0-t); for MRT inf: read-out: MRT(0-∞); for Tmax: read-out: Tmax; for Vd: read-out: Vz; for half-life: read-out: t1/2 (converted)
Method in brief: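 Male ICR mice (6-9 weeks, 20-30 g, n=3 per route) were fasted overnight and dosed at 2 mg/kg i.v. or 5 mg/kg intragastrically in 5% DMSO/40% PEG400/55% (10% HP-β-CD in saline). Plasma levels were measured by LC-MS/MS after protein precipitation (LLOQ 1 ng/mL), and non-compartmental PK parameters were calculated.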

[2] = test system: human osteosarcoma cell line SJSA-1; test: Inhibition of proliferation of human osteosarcoma cell line SJSA-1 (DAPI staining, In Cell Analyzer); details: Homo sapiens, SJSA-1, 72 h, read-out: IC50 (nM), inhibitory activity on proliferation of human osteosarcoma cell line SJSA-1, SJSA-1, incubated 72 h
[3] = ICR mice, IV 2 mg/kg, individual animal, 2 mg/kg
[4] = ICR mice, PO 5 mg/kg, individual animal, 5 mg/kg
[5] = male, ICR, mouse, plasma, iv, 2 mg/kg, ICR mice, IV 2 mg/kg, individual animal
[6] = male, ICR, mouse, plasma, iv, 2 mg/kg, ICR mice, IV 2 mg/kg, mean of 3 animals
[7] = male, ICR, mouse, plasma, po, 5 mg/kg, ICR mice, PO 5 mg/kg, individual animal
[8] = male, ICR, mouse, plasma, po, 5 mg/kg, ICR mice, PO 5 mg/kg, mean of 3 animals

T1 sequence (Q00987 whole entry): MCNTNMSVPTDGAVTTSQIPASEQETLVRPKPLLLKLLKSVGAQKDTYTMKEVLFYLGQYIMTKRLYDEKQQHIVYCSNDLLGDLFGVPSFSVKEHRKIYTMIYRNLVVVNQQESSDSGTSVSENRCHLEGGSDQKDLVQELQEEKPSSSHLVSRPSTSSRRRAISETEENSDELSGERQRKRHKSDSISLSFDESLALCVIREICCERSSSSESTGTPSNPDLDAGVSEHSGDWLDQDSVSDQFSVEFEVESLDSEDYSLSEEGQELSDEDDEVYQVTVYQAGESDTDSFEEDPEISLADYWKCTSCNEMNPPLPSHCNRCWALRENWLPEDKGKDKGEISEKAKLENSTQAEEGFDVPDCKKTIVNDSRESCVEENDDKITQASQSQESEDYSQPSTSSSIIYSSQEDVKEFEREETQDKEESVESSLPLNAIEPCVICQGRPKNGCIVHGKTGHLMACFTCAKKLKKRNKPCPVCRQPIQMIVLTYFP

SMILES: COc1cc(OC)c(-c2nc3c(n2C(C)C)[C@@]2(C(=O)Nc4cc(Cl)ccc42)N(c2cc(Cl)ccc2F)C3=O)cn1 [Example S-133, (S)-6-chloro-5′-(5-chloro-2-fluorophenyl)-2′-(4,6-dimethoxypyridin-3-yl)-3′-isopropyl-3′H-spiro[dihydroindole-3,4′-pyrrolo[3,4-d]imidazole]-2,6′(5′H)-dione]
- IC50 (MDM2): 1.41 nM
- AUC(0-t) [1, 3]: 3187.22 ng·h/mL and 2904.29 ng·h/mL
- AUC(0-∞) [1, 3]: 3247.82 ng·h/mL and 3022.24 ng·h/mL
- CL [1, 3]: 10.26 mL/min/kg and 11.03 mL/min/kg
- Cmax [1, 3]: 2521.09 ng/mL and 2055.95 ng/mL
- MRT(0-t) [1, 3]: 1.05 h and 1.20 h
- MRT(0-∞) [1, 3]: 1.17 h and 1.45 h
- Vz [1, 3]: 1.01 L/kg and 1.16 L/kg
- t1/2 [1, 3]: 1.13 h and 1.22 h
- AUC(0-t) [1, 4]: 4282.62 ng·h/mL and 5953.82 ng·h/mL
- AUC(0-∞) [1, 4]: 4314.80 ng·h/mL and 5994.87 ng·h/mL
- Cmax [1, 4]: 1489.30 ng/mL and 2195.02 ng/mL
- MRT(0-t) [1, 4]: 2.17 h and 2.05 h
- MRT(0-∞) [1, 4]: 2.22 h and 2.10 h
- t1/2 [1, 4]: 1.05 h and 1.04 h
- AUC(0-inf) [1, 5]: 4700 ng·h/mL
- clearance [1, 5]: 7.09 mL/min/kg
- AUC(0-t) ([1]; male, ICR, mouse, plasma, iv, 2 mg/kg, ICR mice, IV 2 mg/kg, individual animal, read-out: AUC(0-t)): 4600 ng·h/mL
- Cmax ([1]; male, ICR, mouse, plasma, iv, 2 mg/kg, ICR mice, IV 2 mg/kg, individual animal, read-out: Cmax): 2980 ng/mL
- MRT last [1, 5]: 1.18 h
- MRT inf [1, 5]: 1.31 h
- Tmax [1, 5]: 0.08 h
- Vd [1, 5]: 0.66 L/kg
- half-life [1, 5]: 1.07 h
- AUC(0-inf) [1, 6]: 3660 ng·h/mL
- clearance [1, 6]: 9.46 mL/min/kg
- AUC(0-t) ([1]; male, ICR, mouse, plasma, iv, 2 mg/kg, ICR mice, IV 2 mg/kg, mean of 3 animals, read-out: AUC(0-t)): 3560 ng·h/mL
- Cmax ([1]; male, ICR, mouse, plasma, iv, 2 mg/kg, ICR mice, IV 2 mg/kg, mean of 3 animals, read-out: Cmax): 2520 ng/mL
- MRT last [1, 6]: 1.14 h
- MRT inf [1, 6]: 1.31 h
- Tmax [1, 6]: 0.083 h
- Vd [1, 6]: 0.94 L/kg
- half-life [1, 6]: 1.14 h
- AUC(0-inf) [1, 7]: 6150 ng·h/mL
- AUC(0-t) ([1]; male, ICR, mouse, plasma, po, 5 mg/kg, ICR mice, PO 5 mg/kg, individual animal, read-out: AUC(0-t)): 6070 ng·h/mL
- Cmax ([1]; male, ICR, mouse, plasma, po, 5 mg/kg, ICR mice, PO 5 mg/kg, individual animal, read-out: Cmax): 1570 ng/mL
- MRT last [1, 7]: 2.34 h
- MRT inf [1, 7]: 2.43 h
- Tmax [1, 7]: 1 h
- half-life [1, 7]: 1.15 h
- AUC(0-inf) [1, 8]: 5490 ng·h/mL
- AUC(0-t) ([1]; male, ICR, mouse, plasma, po, 5 mg/kg, ICR mice, PO 5 mg/kg, mean of 3 animals, read-out: AUC(0-t)): 5440 ng·h/mL
- Cmax ([1]; male, ICR, mouse, plasma, po, 5 mg/kg, ICR mice, PO 5 mg/kg, mean of 3 animals, read-out: Cmax): 1750 ng/mL
- MRT last [1, 8]: 2.19 h
- MRT inf [1, 8]: 2.25 h
- Tmax [1, 8]: 1 h
- half-life [1, 8]: 1.08 h
- AUC(0-t) ([1]; male, ICR, mouse, plasma, po, 5 mg/kg, oral intragastric administration 5 mg/kg, read-out: AUC0-t): 5440 ng·h/mL
- bioavailability ([1]; male, mouse, plasma, ICR mice, PO 5 mg/kg vs IV 2 mg/kg, from mean values, read-out: F* (bioavailability)): 61%
- IC50 [2]: 99.8 nM
